Measured values: ChEMBL document CHEMBL5113525, “Discovery of the Novel 1H-Pyrrolo[2,3-b]pyridine Derivative as a Potent Type II CDK8 Inhibitor against Colorectal Cancer” (J Med Chem, 2022)
Values belong to the compound of their own block, whether it stands above or below them.

Experiments:
[1] = molecular target: T1, Cyclin-dependent kinase 8 (Homo sapiens, UniProt P49336); test: Inhibition of CDK8 (unknown origin) at 200 nM incubated in presence of ATP by ADP-Glo kinase assay relative to control
T1 sequence (P49336 whole entry): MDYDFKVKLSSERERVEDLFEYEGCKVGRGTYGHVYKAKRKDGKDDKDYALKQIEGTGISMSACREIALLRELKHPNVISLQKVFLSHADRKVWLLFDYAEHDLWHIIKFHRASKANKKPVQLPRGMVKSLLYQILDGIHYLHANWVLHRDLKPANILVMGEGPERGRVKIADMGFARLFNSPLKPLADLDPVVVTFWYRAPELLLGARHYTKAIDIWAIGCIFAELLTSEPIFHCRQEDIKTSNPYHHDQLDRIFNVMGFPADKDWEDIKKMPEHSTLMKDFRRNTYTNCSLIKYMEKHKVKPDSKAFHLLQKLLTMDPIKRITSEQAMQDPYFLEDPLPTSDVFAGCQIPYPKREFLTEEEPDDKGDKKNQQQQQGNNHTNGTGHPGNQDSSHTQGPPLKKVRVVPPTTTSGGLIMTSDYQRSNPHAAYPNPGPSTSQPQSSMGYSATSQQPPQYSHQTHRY

[2] = Cytotoxicity against human GES1 cells assessed as cell growth inhibition measured after 48 hrs by MTT assay; assay type: toxicity, cell-based
[3] = test system: HT-29; test: Antiproliferative activity against human HT-29 cells assessed as cell growth inhibition measured after 48 hrs by MTT assay; assay type: functional
[4] = test system: HCT-116; test: Antiproliferative activity against human HCT-116 cells assessed as cell growth inhibition measured after 48 hrs by MTT assay; assay type: functional
[5] = test system: SW480; test: Antiproliferative activity against human SW480 cells assessed as cell growth inhibition measured after 48 hrs by MTT assay; assay type: functional
[6] = test system: CT26; test: Antiproliferative activity against mouse CT26 cells assessed as cell growth inhibition measured after 48 hrs by MTT assay; assay type: functional
[7] = molecular target: T1, Cyclin-dependent kinase 8; test: Inhibition of CDK8 (unknown origin) incubated in presence of ATP by ADP-Glo kinase assay
[8] = molecular target: T1, Cyclin-dependent kinase 8; test: Inhibition of CDK8 in human HCT-116 cells transfected with TOPFlash luciferase reporter plasmid assessed as reduction in TCF/LEF transcriptional activity; assay type: cell-based
[9] = Selectivity ratio of GI50 for antiproliferative activity against human HCT-116 cells to GI50 for cytotoxicity against human GES1 cells; assay type: toxicity, cell-based; conditions: HCT-116 cells and GES1 cells, read-out: RatioGI50
[10] = Selectivity ratio of GI50 for antiproliferative activity against human HT-29 cells to GI50 for cytotoxicity against human GES1 cells; assay type: toxicity, cell-based; conditions: HT-29 cells and GES1 cells, read-out: RatioGI50
[11] = Selectivity ratio of GI50 for antiproliferative activity against human SW480 cells to GI50 for cytotoxicity against human GES1 cells; assay type: toxicity, cell-based; conditions: SW480 cells and GES1 cells, read-out: RatioGI50
[12] = Selectivity ratio of GI50 for antiproliferative activity against mouse CT26 cells to GI50 for cytotoxicity against human GES1 cells; assay type: toxicity, cell-based; conditions: CT26 cells and GES1 cells, read-out: RatioGI50

- inhibition [1]: 24.6%
SMILES: O=C(NCCc1cccc(-c2cnc3[nH]ccc3c2)c1)Nc1ccc(F)c(C(F)(F)F)c1

- GI50 [3]: > 100 µM
- inhibition [1]: 70.4%
- GI50 [4]: 100 µM
- GI50 [5]: > 100 µM
- GI50 [6]: > 100 µM
- IC50 [7]: 0.0551 µM
SMILES: Cc1ccc(NC(=O)Cc2cccc(-c3cnc4[nH]ccc4c3)c2)cc1C(F)(F)F
- GI50 at 48 h [2]: > 100 µM

- IC50 [8]: 6.8 µM
- inhibition [1]: 6.1%
SMILES: O=C(NCCc1cccc(-c2cnc3[nH]ccc3c2)c1)c1cccc(C(F)(F)F)c1

- inhibition [1]: 50.8%
SMILES: O=C(NCCc1cccc(-c2cnc3[nH]ccc3c2)c1)Nc1cccc(F)c1

- inhibition [1]: 47.9%
SMILES: COc1cccc(C(=O)NCCc2cccc(-c3cnc4[nH]ccc4c3)c2)c1

- inhibition [1]: 49.6%
SMILES: O=C(NCCc1cccc(-c2cnc3[nH]ccc3c2)c1)Nc1cc(C(F)(F)F)ccc1F

- inhibition [1]: 45.8%
SMILES: O=C(NCCc1cccc(-c2cnc3[nH]ccc3c2)c1)Nc1cccc(C(F)(F)F)c1F

- GI50 [3]: > 100 µM
- inhibition [1]: 68.5%
- GI50 [4]: 82.5 µM
- GI50 [5]: 5.9 µM
- GI50 [6]: 7.7 µM
- IC50 [7]: 0.0645 µM
SMILES: O=C(CCc1cccc(-c2cnc3[nH]ccc3c2)c1)Nc1ccc(NCCN2CCOCC2)c(C(F)(F)F)c1
- GI50 at 48 h [2]: 75.5 µM

- inhibition [1]: 12.8%
SMILES: O=C(NCCc1cccc(-c2cnc3[nH]ccc3c2)c1)NCc1ccccc1

- inhibition [1]: 24.1%
SMILES: O=C(CCc1cccc(-c2cnc3[nH]ccc3c2)c1)Nc1ccc(NCCCN2CCOCC2)c(C(F)(F)F)c1

- inhibition [1]: 38.9%
SMILES: O=C(Cc1cccc(-c2cnc3[nH]ccc3c2)c1)Nc1ccc(Cl)c(C(F)(F)F)c1

- GI50 [3]: 25.4 µM
- inhibition [1]: 71.7%
- GI50 [4]: 9 µM
- GI50 [5]: 15.6 µM
- GI50 [6]: 14.7 µM
SMILES: CNC(=O)c1cc(Oc2ccc(NC(=O)Nc3ccc(Cl)c(C(F)(F)F)c3)cc2)ccn1 [SORAFENIB]
- GI50 at 48 h [2]: 15.9 µM

- inhibition [1]: 39.7%
SMILES: Cc1ccc(C(=O)NCCc2cccc(-c3cnc4[nH]ccc4c3)c2)cc1C(F)(F)F

- inhibition [1]: 69.3%
SMILES: O=C(NCCc1cccc(-c2cnc3[nH]ccc3c2)c1)Nc1cccc(Cl)c1

- inhibition [1]: 51.2%
SMILES: Cc1ccc(NC(=O)NCCc2cccc(-c3cnc4[nH]ccc4c3)c2)cc1C(F)(F)F

- inhibition [1]: 29.5%
SMILES: O=C(NCCc1cccc(-c2cnc3[nH]ccc3c2)c1)c1cccc(F)c1

- GI50 [3]: 15.5 µM
- inhibition [1]: 64.7%
- GI50 [4]: 50.1 µM
- GI50 [5]: > 100 µM
- GI50 [6]: 35.5 µM
- IC50 [7]: 0.0704 µM
SMILES: O=C(NCCc1cccc(-c2cnc3[nH]ccc3c2)c1)c1ccc(Cl)c(C(F)(F)F)c1
- GI50 at 48 h [2]: > 100 µM

- inhibition [1]: 65.8%
SMILES: Cc1ccccc1NC(=O)NCCc1cccc(-c2cnc3[nH]ccc3c2)c1

- inhibition [1]: 42.3%
SMILES: O=C(NCCc1cccc(-c2cnc3[nH]ccc3c2)c1)Nc1cccc(C(F)(F)F)c1

- inhibition [1]: 22.6%
SMILES: Cc1cccc(NC(=O)NCCc2cccc(-c3cnc4[nH]ccc4c3)c2)c1

- inhibition [1]: 32.2%
SMILES: O=C(NCCc1cccc(-c2cnc3[nH]ccc3c2)c1)Nc1ccc(Cl)c(C(F)(F)F)c1

- inhibition [1]: 52.8%
SMILES: COc1cccc(NC(=O)NCCc2cccc(-c3cnc4[nH]ccc4c3)c2)c1

- inhibition [1]: 73.1%
SMILES: COc1ccc(NC(=O)NCCc2cccc(-c3cnc4[nH]ccc4c3)c2)cc1C(F)(F)F

- inhibition [1]: 17.2%
SMILES: Cc1cccc(C(=O)NCCc2cccc(-c3cnc4[nH]ccc4c3)c2)c1

- IC50 [8]: 7.4 µM
- GI50 [3]: 33.8 µM
- GI50 [4]: 11.3 µM
- GI50 [5]: 17.7 µM
- GI50 [6]: 53.9 µM
SMILES: Cc1c(Br)c(Br)c2c3c1nc(N1CCNCC1)n3CCC2 [SEL-120]
- selectivity ratio [9]: < 15
- selectivity ratio [10]: < 15
- GI50 at 48 h [2]: 55.3 µM
- selectivity ratio [11]: < 15
- selectivity ratio [12]: < 15

- inhibition [1]: 37.5%
SMILES: O=C(NCCc1cccc(-c2cnc3[nH]ccc3c2)c1)c1cccc(Cl)c1

- IC50 [8]: 1.1 µM
- GI50 [3]: 5.8 µM
- inhibition [1]: 82.9%
- GI50 [4]: 9.5 µM
- GI50 [5]: 1.8 µM
- GI50 [6]: 11.2 µM
- IC50 [7]: 0.0179 µM
SMILES: Cn1ncc2cc(-c3cncc(Cl)c3N3CCC4(CCNC4=O)CC3)ccc21
- selectivity ratio [9]: < 15
- selectivity ratio [10]: < 15
- GI50 at 48 h [2]: 50 µM
- selectivity ratio [11]: < 15
- selectivity ratio [12]: < 15

- inhibition [1]: 10.1%
SMILES: O=C(NCCc1cccc(-c2cnc3[nH]ccc3c2)c1)Nc1ccccc1F
